≈ marks a conversion by molar mass, not a printed value. Like-named read-outs stand apart in the source and are kept apart here.
Assays:
Assay type in all cases: cell-based
Enterobacter cloacae P99 = experiment: In vitro activity (MIC), agar dilution test
From the text: (§1) In the following Table there are presented for the composition in accordance with the invention the minimum inhibitory concentrations (MIC values in μ/ml) determined in in vitro comparative tests in the case of various infections with pathogenic microorganisms.
(§2) In vitro activity of compound A and mecillinam (MEC) against various
(§3) of bacteria (MIC μg/ml) Method: Agar dilution test with DST agar

Enterobacter cloacae 5 = experiment: In vitro activity (MIC), agar dilution test
From the text: as §1, §2, §3

[1] = test system: Citrobacter freundii 1385 b; experiment: In vitro activity (MIC), agar dilution test
From the text: as §1, §2, §3

[2] = test system: Pseudomonas aeruginosa 1920 E; experiment: In vitro activity (MIC), agar dilution test
From the text: as §1, §2, §3

[3] = test system: Acinetobacter anitratus 5I-156; experiment: In vitro activity (MIC), agar dilution test; details: Acinetobacter calcoaceticus, 5I156
From the text: as §1, §2, §3

Enterobacter cloacae 908 = experiment: In vitro activity (MIC), agar dilution test
From the text: as §1, §2, §3

[4] = test system: Pseudomonas aeruginosa 5646; experiment: In vitro activity (MIC), agar dilution test
From the text: as §1, §2, §3

Enterobacter cloacae 163 = experiment: In vitro activity (MIC), agar dilution test
From the text: as §1, §2, §3

[5] = test system: Enterobacter agglomerans 960; experiment: In vitro activity (MIC), agar dilution test; details: Pantoea agglomerans
From the text: as §1, §2, §3

[6] = test system: Pseudomonas aeruginosa 5748; experiment: In vitro activity (MIC), agar dilution test
From the text: as §1, §2, §3

Escherichia coli 5/9 = experiment: In vitro activity (MIC), agar dilution test
From the text: as §1, §2, §3

[7] = test system: Enterobacter cloacae MK 1617; experiment: In vitro activity (MIC), agar dilution test
From the text: as §1, §2, §3

[8] = test system: Citrobacter freundii 1982; experiment: In vitro activity (MIC), agar dilution test
From the text: as §1, §2, §3

[9] = test system: Pseudomonas aeruginosa 1937 E; experiment: In vitro activity (MIC), agar dilution test
From the text: as §1, §2, §3

[10] = test system: Enterobacter cloacae MK 373; experiment: In vitro activity (MIC), agar dilution test; details: MK373
From the text: as §1, §2, §3

[11] = test system: Pseudomonas aeruginosa 143724 R; experiment: In vitro activity (MIC), agar dilution test
From the text: as §1, §2, §3

Enterobacter strains = experiment: Activity and synergism against Enterobacter strains
From the text: In the scope of the present invention it has been ascertained that compound A, which has hitherto not been considered as a combination partner for mecillinam, is especially well suited for such a combination.
as §1

[12] = single substance, DST agar (Oxoid), read-out: MIC

## NC(=O)OC[C@@H]1[C@H](NC(=O)/C(=N\OCC(=O)O)c2csc(N)n2)C(=O)N1S(=O)(=O)O [Compound A, (2S,3S)-3-((Z)-2-(2-amino-4-thiazolyl)-2-[(carboxymethoxy)imino]acetamido)-2-[(carbamoyloxy)-methyl]-4-oxo-1-azetidinesulphonic acid]
Enterobacter cloacae P99
  MIC: 16 µg/mL (≈ 34.3 µM)
Enterobacter cloacae 5; [12]
  MIC: 8 µg/mL (≈ 17.2 µM)
[1]; [12]
  MIC: 8 µg/mL (≈ 17.2 µM)
[2]; [12]
  MIC: 4 µg/mL (≈ 8.58 µM)
[3]; [12]
  MIC: 16 µg/mL (≈ 34.3 µM)
Enterobacter cloacae 908; [12]
  MIC: 32 µg/mL (≈ 68.6 µM)
[4]; [12]
  MIC: 8 µg/mL (≈ 17.2 µM)
Enterobacter cloacae 163; [12]
  MIC: 32 µg/mL (≈ 68.6 µM)
[5]; [12]
  MIC: 16 µg/mL (≈ 34.3 µM)
[6]
  MIC: 8 µg/mL (≈ 17.2 µM)
Escherichia coli 5/9; [12]
  MIC: 2 µg/mL (≈ 4.29 µM)
[7]; MK1617, single substance, DST agar (Oxoid), read-out: MIC
  MIC: 32 µg/mL (≈ 68.6 µM)
[8]; [12]
  MIC: 4 µg/mL (≈ 8.58 µM)
[9]; [12]
  MIC: 2 µg/mL (≈ 4.29 µM)
[10]
  MIC: 4 µg/mL (≈ 8.58 µM)
[11]; [12]
  MIC: 8 µg/mL (≈ 17.2 µM)
Enterobacter strains
  sensitivity of the strains: only moderately sensitive

## CC1(C)S[C@@H]2[C@H](/N=C/N3CCCCCC3)C(=O)N2[C@H]1C(=O)O [MEC, mecillinam]
Enterobacter cloacae P99
  MIC: > 256 µg/mL
Enterobacter cloacae 5
  MIC: > 256 µg/mL
[1]
  MIC: > 256 µg/mL
[2]
  MIC: > 256 µg/mL
[3]
  MIC: > 256 µg/mL
Enterobacter cloacae 908
  MIC: > 256 µg/mL
[4]
  MIC: > 256 µg/mL
Enterobacter cloacae 163
  MIC: > 256 µg/mL
[5]
  MIC: > 256 µg/mL
[6]
  MIC: > 256 µg/mL
Escherichia coli 5/9
  MIC: > 256 µg/mL
[7]; MK1617
  MIC: > 256 µg/mL
[8]
  MIC: > 256 µg/mL
[9]
  MIC: > 256 µg/mL
[10]
  MIC: > 256 µg/mL
[11]
  MIC: > 256 µg/mL
Enterobacter strains
  sensitivity of the strains: resistant
